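Step 1: Grow cells in 96-well plates. Step 2: Expose to compound for 48 hours at 5 concentrations. Step 3: Interpolate endpoints linearly; if unreached, use highest concentration. Abbreviation: GI50, concentration required for 50% inhibition of growth.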 Calls of active or inactive are those of the source. Cut-off read from the data, not from the text of the source: active = GI50 up to about 1.1 µM and inactive = higher.
Experiments:
Experiment in all cases: NCI tumour cell line growth inhibition, 48 h
[1] = system: Malme-3M
[2] = system: OVCAR-5
[3] = system: NCI-H23
[4] = system: UO-31
[5] = system: 786-0
[6] = system: SNB-19
[7] = system: OVCAR-3
[8] = system: HCT-15
[9] = system: RPMI-8226
[10] = system: NCI-H522
[11] = system: HOP-62
[12] = system: A498
[13] = system: BT-549
[14] = system: LOX IMVI
[15] = system: RXF 393
[16] = system: MCF7
[17] = system: SF-268
[18] = system: HL-60
[19] = system: MDA-N

| SMILES | GI50 [1] | GI50 [2] | GI50 [3] | GI50 [4] | GI50 [5] | GI50 [6] | GI50 [7] | GI50 [8] | GI50 [9] | GI50 [10] | GI50 [11] | GI50 [12] | GI50 [13] | GI50 [14] | GI50 [15] | GI50 [16] | GI50 [17] | GI50 [18] | GI50 [19] |
| --- | --- | --- | --- | --- | --- | --- | --- | --- | --- | --- | --- | --- | --- | --- | --- | --- | --- | --- | --- |
| C=C1C2CCCC1C1(S(C)(=O)=O)CCCCC21O (stereo not given) | > 100 µM (inactive) | > 100 µM (inactive) | > 100 µM (inactive) | > 100 µM (inactive) | > 100 µM (inactive) | > 100 µM (inactive) | > 100 µM (inactive) | > 100 µM | > 100 µM (inactive) | > 100 µM (inactive) |  |  |  |  |  |  |  |  |  |
| Cc1cc(C(O)CNC(C)CCn2cnc3c2c(=O)n(C)c(=O)n3C)ccc1O (stereo not given) | > 100 µM (inactive) | > 100 µM (inactive) | > 100 µM (inactive) | > 100 µM (inactive) | > 100 µM (inactive) | > 100 µM (inactive) | > 100 µM (inactive) | > 100 µM | > 100 µM (inactive) | > 100 µM (inactive) | > 100 µM (inactive) | > 100 µM (inactive) | > 100 µM (inactive) | > 100 µM (inactive) | > 100 µM (inactive) | > 100 µM (inactive) | > 100 µM (inactive) |  |  |
| CC(C)c1cccc(C(C)C)c1NC(=O)/C(Cc1nc2ccc(Cl)cc2nc1O)=N\NC(=O)C[N+](C)(C)C | > 100 µM (inactive) | > 100 µM (inactive) | > 100 µM (inactive) | 76.7 µM (inactive) | > 100 µM (inactive) | > 100 µM (inactive) | > 100 µM (inactive) |  | > 100 µM (inactive) | > 100 µM (inactive) | > 100 µM (inactive) | > 100 µM (inactive) |  |  | > 100 µM (inactive) |  | > 100 µM (inactive) | > 100 µM (inactive) |  |
| CC1=C(C#N)C(=C(C#N)C#N)OC1(C)Cc1ccccc1 (stereo not given) |  | 61.1 µM (inactive) | 36.7 µM (inactive) | 18.7 µM (inactive) | 41.7 µM (inactive) | > 100 µM (inactive) | 14.6 µM (inactive) | 23.3 µM | 42.7 µM (inactive) | 14.4 µM (inactive) | 58.9 µM (inactive) | 87.7 µM (inactive) | 35.1 µM (inactive) | 23.4 µM (inactive) | 17.6 µM (inactive) | 38.2 µM (inactive) | 49.5 µM (inactive) |  |  |
| O=c1c2cc([N+](=O)[O-])ccc2[nH]n1Cc1ccccc1Cl | 26.7 µM (inactive) | > 100 µM (inactive) | 59.6 µM (inactive) | 39 µM (inactive) | 64.9 µM (inactive) | > 100 µM (inactive) | > 100 µM (inactive) | > 100 µM | 30.1 µM (inactive) | 32.7 µM (inactive) | 38.1 µM (inactive) | 33.3 µM (inactive) |  | > 100 µM (inactive) | 35.2 µM (inactive) |  | > 100 µM (inactive) | 30.8 µM (inactive) | > 100 µM (inactive) |
| COc1ccc(C)cc1-c1ccc(-c2cc(C)ccc2OC)o1 | 66.4 µM (inactive) | 87.1 µM (inactive) | > 100 µM (inactive) | > 100 µM (inactive) | > 100 µM (inactive) | > 100 µM (inactive) | > 100 µM (inactive) | > 100 µM | > 100 µM (inactive) | > 100 µM (inactive) | > 100 µM (inactive) | > 100 µM (inactive) |  | > 100 µM (inactive) |  |  | > 100 µM (inactive) | 86.5 µM (inactive) |  |
| COc1cc(Br)c(/C=N\c2cccc3ccc(OS(=O)(=O)c4cccc([N+](=O)[O-])c4)cc23)cc1OC | 36 µM (inactive) | > 100 µM (inactive) | 12.5 µM (inactive) | 20.1 µM (inactive) | 25.4 µM (inactive) | 60.1 µM (inactive) | 32.7 µM (inactive) | 24.5 µM | 24 µM (inactive) | 22.1 µM (inactive) | 34.4 µM (inactive) | 66.5 µM (inactive) |  | 29.8 µM (inactive) | 16.3 µM (inactive) |  | 19.4 µM (inactive) |  |  |
| COc1ccc(C2Oc3c(cccc3-c3c(-c4ccc(O)cc4)oc4cc(O)cc(O)c4c3=O)C(=O)C2O)cc1O (stereo not given) | > 100 µM (inactive) | > 100 µM (inactive) | > 100 µM (inactive) | > 100 µM (inactive) | > 100 µM (inactive) | > 100 µM (inactive) | > 100 µM (inactive) | > 100 µM | 83.2 µM (inactive) |  | > 100 µM (inactive) | > 100 µM (inactive) | > 100 µM (inactive) |  |  | > 100 µM (inactive) | > 100 µM (inactive) | > 100 µM (inactive) |  |
| Sc1ncnc2c1ncn2C1CCCO1 (stereo not given) | > 100 µM (inactive) | > 100 µM (inactive) | > 100 µM (inactive) | > 100 µM (inactive) | > 100 µM (inactive) | > 100 µM (inactive) | 22.6 µM (inactive) | > 100 µM | 99.5 µM (inactive) | 64.6 µM (inactive) | 64.4 µM (inactive) | > 100 µM (inactive) |  | 37.6 µM (inactive) | > 100 µM (inactive) |  | > 100 µM (inactive) | > 100 µM (inactive) |  |
| CN(C)c1nc2oc(-c3ccccc3)c(-c3ccccc3)c2c2nnnn12 |  | > 100 µM (inactive) | > 100 µM (inactive) | > 100 µM (inactive) | > 100 µM (inactive) | > 100 µM (inactive) |  | > 100 µM | > 100 µM (inactive) | > 100 µM (inactive) |  | > 100 µM (inactive) |  | > 100 µM (inactive) | > 100 µM (inactive) | > 100 µM (inactive) | > 100 µM (inactive) | 19.8 µM (inactive) |  |
| Cc1n[nH]c(C(F)(F)F)c1/N=N/N1CCOCC1 | 14.9 µM (inactive) | 6.37 µM (inactive) | 4.06 µM (inactive) | 2.4 µM (inactive) | 2.63 µM (inactive) | 15.2 µM (inactive) | 7.21 µM (inactive) | 8.81 µM | 0.873 µM (active) | 3.94 µM (inactive) | 8.77 µM (inactive) | 17.4 µM (inactive) | 12.4 µM (inactive) | 1.97 µM (inactive) | 12.5 µM (inactive) | 3.78 µM (inactive) | 13.1 µM (inactive) |  |  |
| COc1ccc(OC)c2c(C(=O)O)c(C(C)c3ccccc3)ccc12 (stereo not given) | > 100 µM (inactive) | > 100 µM (inactive) | > 100 µM (inactive) | > 100 µM (inactive) | > 100 µM (inactive) | > 100 µM (inactive) | > 100 µM (inactive) | > 100 µM |  | > 100 µM (inactive) | > 100 µM (inactive) | > 100 µM (inactive) |  | > 100 µM (inactive) | > 100 µM (inactive) |  | > 100 µM (inactive) | > 100 µM (inactive) |  |
| CC1CC2C3CCC4=CC(=O)C=CC4(C)C3(F)C(O)CC2(C)C1(O)C(=O)CO.Cc1cc(NS(=O)(=O)c2ccc(/N=N\c3cc(/N=N/c4ccc(S(=O)(=O)Nc5cc(C)nc(C)n5)cc4)c(OC(=O)C(Cl)Cl)c4cccc(NC(=O)C(Cl)Cl)c34)cc2)nc(C)n1 | 20.6 µM (inactive) | 16.6 µM (inactive) | 30.3 µM (inactive) | 19.8 µM (inactive) | 18 µM (inactive) | 16.5 µM (inactive) | 18.6 µM (inactive) | 15.6 µM |  | 15 µM (inactive) | 35.2 µM (inactive) | 27.5 µM (inactive) |  | 19.2 µM (inactive) | 23.9 µM (inactive) |  | 26.4 µM (inactive) | 16 µM (inactive) |  |
| Cc1c(/C=N/NC(=S)Nc2ccc([N+](=O)[O-])cc2)c(=O)n(-c2ccccc2)n1C |  |  | 17.9 µM (inactive) | 11.4 µM (inactive) | 14.3 µM (inactive) | 16 µM (inactive) |  | 3.08 µM | 48.5 µM (inactive) |  | 11.6 µM (inactive) | 10.9 µM (inactive) | 15.7 µM (inactive) | 15.2 µM (inactive) | 12.4 µM (inactive) | 20 µM (inactive) | 13.5 µM (inactive) | 35.2 µM (inactive) |  |
| CSc1nc(O)c(C#N)c(-c2ccc(Cl)cc2)n1 |  | > 100 µM (inactive) | > 100 µM (inactive) | 36.5 µM (inactive) | > 100 µM (inactive) | 77.4 µM (inactive) | > 100 µM (inactive) | > 100 µM | 80.4 µM (inactive) | 51.8 µM (inactive) | > 100 µM (inactive) | 74.6 µM (inactive) | > 100 µM (inactive) |  | 66.7 µM (inactive) | > 100 µM (inactive) | > 100 µM (inactive) | 35.5 µM (inactive) |  |
| Cc1cc2c(=O)cc(-c3ccc(C(=O)O)cc3)oc2c(C(=O)O)c1C | > 100 µM (inactive) | > 100 µM (inactive) | > 100 µM (inactive) | > 100 µM (inactive) | > 100 µM (inactive) | > 100 µM (inactive) | > 100 µM (inactive) | > 100 µM | > 100 µM (inactive) | > 100 µM (inactive) | > 100 µM (inactive) |  |  | > 100 µM (inactive) |  |  |  | > 100 µM (inactive) |  |
| Nc1nc(O)c2nc(CNc3ccc(C(=O)NC(CCC(=O)O)C(=O)O)cc3)cnc2n1 (stereo not given) | > 100 µM (inactive) | > 100 µM (inactive) | > 100 µM (inactive) | > 100 µM (inactive) | > 100 µM (inactive) | > 100 µM (inactive) | > 100 µM (inactive) | > 100 µM | > 100 µM (inactive) | > 100 µM (inactive) | > 100 µM (inactive) |  | > 100 µM (inactive) | > 100 µM (inactive) | > 100 µM (inactive) | > 100 µM (inactive) | > 100 µM (inactive) |  |  |
| COC1C(O)C(C)OC(OC2C(Oc3cccc4c(O)c5c(=O)oc6ccc(C)c7c(=O)oc(c34)c5c67)OC(C)C3O[C@H](c4ccccc4)OC32)C1O (stereo not given in full) | 0.845 µM (active) | 1.48 µM (inactive) |  | 0.294 µM (active) | 0.0521 µM (active) | 0.13 µM (active) | 0.195 µM (active) | 0.168 µM | 0.0796 µM (active) |  | 0.0441 µM (active) | 0.0731 µM (active) |  |  | 0.274 µM (active) | 0.084 µM (active) | 0.135 µM (active) | 0.098 µM (active) | 0.372 µM (active) |
